For 32 molecules, IC50 and MTAP intact/deleted ratio results are on record in patent US11999727B2 (Tango Therapeutics, Inc., priority 2020, dated 2024).

SMILES strings stand for the structures. Read-outs that look alike come from different tables or passages of the source.

Assay type in all cases: cell-based
Experiment [1] relates to HAP1 MTAP-intact cell line. In words: SDMA in-cell western assay, HAP1 MTAP-intact. The settings on record: Homo sapiens. The source says:
(§1) Table 1 also indicates IC50 values in an MTAP-isogenic cell line pair for exemplary compounds in an SDMA in-cell western assay (columns 7-8). HAP1 MTAP-intact is a cell line in which endogenous levels of MTAP are expressed, and HAP1 MTAP-deleted is an MTAP-null cell line.

Experiment [2] relates to HAP1 MTAP-deleted cell line. In words: SDMA in-cell western assay, HAP1 MTAP-deleted. The settings on record: for IC50: Homo sapiens; for MTAP intact/deleted ratio: IC50 ratio HAP1 MTAP-intact / HAP1 MTAP-deleted, SDMA in-cell western.
Excerpt: as §1

Experiment [3] concerns HAP1 MTAP-deleted cell line. In words: Viability assay, MTAP-deleted cell line. Particulars: Homo sapiens. The source says:
Table 1 additionally indicates IC50 values in a viability assay for the MTAP-deleted cell line (column 10), indicating the effect of treatment with compound on cell survival.

Setting [4] is: HAP1, SDMA in-cell western, HAP1 MTAP-intact, read-out: MTAP HAP1 intact IC50.
The mark [5] stands for this setting: HAP1, SDMA in-cell western, HAP1 MTAP-deleted, read-out: HAP 1 MTAP deleted IC50.
[6] abbreviates: HAP1, viability IC50, MTAP-deleted cell line, read-out: HAP1 MTAP deleted viability.
[7] abbreviates: HAP1, read-out: MTAP HAP1 intact IC50.
Setting [8] is: HAP1, read-out: HAP1 MTAP deleted IC50.
Setting [9] is: HAP1, read-out: HAP1 MTAP deleted viability.

In the case of `C[C@H]1CC[C@H](c2ccc(N)cn2)N(C(=O)C(=O)Nc2cncc(C(N)=O)c2)C1` (relative stereo) [Compound 594, 5-[[2-[(2R,5S)-2-(5-amino-2-pyridyl)-5-methyl-1-piperidyl]-2-oxo-acetyl]amino]pyridine-3-carboxamide], the values for the IC50 in experiment [1] (setting [4]), in experiment [2] (setting [5]) and in experiment [3] (setting [6]) were more than 1 µM, more than 1 µM and more than 10 µM, respectively. Further, the MTAP intact/deleted ratio result in experiment [2] is “B (an IC50 ratio greater than or equal to 3 fold but lower than 10 fold)”.

For `COc1ncc(NC(=O)C(=O)N2C[C@H](C)CC[C@H]2c2ccc3sccc3c2)cc1C(N)=O` (relative stereo) [Compound 633, 5-[[2-[(2S,5R)-2-(benzothiophen-5-yl)-5-methyl-1-piperidyl]-2-oxo-acetyl]amino]-2-methoxy-pyridine-3-carboxamide], the IC50 in experiment [1] (setting [4]) is more than 1 µM; in experiment [2] (setting [5]), more than 1 µM; in experiment [3] (setting [6]), more than 10 µM. Moreover, in experiment [2], the MTAP intact/deleted ratio entry is “C (an IC50 ratio of less than 3 fold)”.

On to `Cc1cc([C@H]2CC[C@H](C)CN2C(=O)C(=O)Nc2cncc(C(N)=O)c2)cc2cn[nH]c12` (relative stereo) [Compound 638, 5-[[2-[(2R,5S)-5-methyl-2-(7-methyl-1H-indazol-5-yl)-1-piperidyl]-2-oxo-acetyl]amino]pyridine-3-carboxamide], for which the IC50 in experiment [1] (setting [4]) was more than 1 µM; in experiment [2] (setting [5]), less than 0.1 µM; in experiment [3] (setting [6]) it was 1 to 10 µM. Also, the MTAP intact/deleted ratio result in experiment [2] was “A (an IC50 ratio greater than or equal to 10 fold)”.

Consider `Cc1cncc(NC(=O)C(=O)N2C[C@@H](C)CC[C@@H]2c2ccccc2)c1` (single isomer, unassigned) [Compound 2], for which the IC50 in experiment [1] (setting [7]) was more than 1 µM; in experiment [2] (setting [8]), more than 1 µM; in experiment [3] (setting [9]), more than 10 µM.

As to `Cc1cncc(NC(=O)C(=O)N2[C@@H](c3ccccc3)CC[C@H](C)[C@H]2C)c1` (single isomer, unassigned) [Compound 32], the figures for the IC50 in experiment [1] (setting [7]), in experiment [2] (setting [8]) and in experiment [3] (setting [9]) were more than 1 µM, more than 1 µM and more than 10 µM, respectively.

As for `Cc1cc(NC(=O)C(=O)N2C[C@@H](C)CC[C@@H]2c2ccccc2)cnc1N` (single isomer, unassigned) [Compound 33], the IC50 in experiment [1] (setting [7]) was 0.1 to 1 µM; in experiment [2] (setting [8]) it was less than 0.1 µM; in experiment [3] (setting [9]), 1 to 10 µM.

`Cc1cncc(NC(=O)C(=O)N2[C@@H](c3ccccc3)CC[C@@H](C)[C@H]2C)c1` (single isomer, unassigned) [Compound 35]: the values for the IC50 in experiment [1] (setting [7]), in experiment [2] (setting [8]) and in experiment [3] (setting [9]) were more than 1 µM, more than 1 µM and more than 10 µM, respectively.

As to `Cc1cc(NC(=O)C(=O)N2C[C@H](C)CC[C@@H]2c2ccccc2)cnc1N` (single isomer, unassigned) [Compound 37], the values for the IC50 in experiment [1] (setting [7]), in experiment [2] (setting [8]) and in experiment [3] (setting [9]) were more than 1 µM, 0.1 to 1 µM and 1 to 10 µM, respectively.

On to `Cc1cncc(NC(=O)C(=O)N2[C@H](c3ccccc3)CC[C@@H](C)[C@@H]2C)c1` (single isomer, unassigned) [Compound 39], for which the values for the IC50 in experiment [1] (setting [7]), in experiment [2] (setting [8]) and in experiment [3] (setting [9]) were more than 1 µM, more than 1 µM and more than 10 µM, respectively.

With `C[C@H]1CC[C@@H](c2ccccc2)N(C(=O)C(=O)Nc2cncc(C(N)=O)c2)C1` (single isomer, unassigned) [Compound 82], the IC50 was more than 1 µM in experiment [1] (setting [7]), 0.1 to 1 µM in experiment [2] (setting [8]) and more than 10 µM in experiment [3] (setting [9]).

For `C[C@H]1CC[C@H](c2ccccc2)N(C(=O)C(=O)Nc2cncc(C(N)=O)c2)C1` (single isomer, unassigned) [Compound 88], the figures for the IC50 in experiment [1] (setting [7]), in experiment [2] (setting [8]) and in experiment [3] (setting [9]) were more than 1 µM, less than 0.1 µM and 1 to 10 µM, respectively.

For the molecule `Cc1cc(NC(=O)C(=O)N2CCCC[C@H]2c2ccccc2)cnc1C` (single isomer, unassigned) [Compound 188], the values for the IC50 in experiment [1] (setting [7]), in experiment [2] (setting [8]) and in experiment [3] (setting [9]) were more than 1 µM, more than 1 µM and more than 10 µM, respectively.

As to `Cc1cc(NC(=O)C(=O)N2CCCC[C@@H]2c2ccccc2)cnc1C` (single isomer, unassigned) [Compound 189], the IC50 in experiment [1] (setting [7]) was more than 1 µM; in experiment [2] (setting [8]), more than 1 µM; in experiment [3] (setting [9]) it was more than 10 µM.

`Cc1cc(NC(=O)C(=O)N2C[C@H](C)CC[C@H]2c2ccc(F)cc2)cnc1N` (single isomer, unassigned) [Compound 233]: the results for the IC50 in experiment [1] (setting [7]), in experiment [2] (setting [8]) and in experiment [3] (setting [9]) were more than 1 µM, more than 1 µM and more than 10 µM, respectively.

Turning to `Cc1cc(NC(=O)C(=O)N2C[C@@H](C)CC[C@@H]2c2ccc(F)cc2)cnc1N` (single isomer, unassigned) [Compound 242], the IC50 was 0.1 to 1 µM in experiment [1] (setting [7]), less than 0.1 µM in experiment [2] (setting [8]) and less than 1 µM in experiment [3] (setting [9]).

On to `C[C@H]1CC[C@H](c2ccc(O)cc2)N(C(=O)C(=O)Nc2cncc(C(N)=O)c2)C1` (single isomer, unassigned) [Compound 287], for which the IC50 in experiment [1] (setting [7]) was 0.1 to 1 µM; in experiment [2] (setting [8]), less than 0.1 µM; in experiment [3] (setting [9]) it was less than 1 µM.

Turning to `C[C@@H]1CC[C@@H](c2ccc(O)cc2)N(C(=O)C(=O)Nc2cncc(C(N)=O)c2)C1` (single isomer, unassigned) [Compound 297], the IC50 is more than 1 µM in experiment [1] (setting [7]), more than 1 µM in experiment [2] (setting [8]) and more than 10 µM in experiment [3] (setting [9]).

With `C[C@H]1CC[C@H](c2ccc3c(c2)CC(=O)N3)N(C(=O)C(=O)Nc2cncc(C(N)=O)c2)C1` (single isomer, unassigned) [Compound 319], the IC50 in experiment [1] (setting [7]) was 0.1 to 1 µM; in experiment [2] (setting [8]), less than 0.1 µM; in experiment [3] (setting [9]), 1 to 10 µM.

Regarding `C[C@@H]1CC[C@@H](c2ccc3[nH]cnc3c2)N(C(=O)C(=O)Nc2cncc(C(N)=O)c2)C1` (single isomer, unassigned) [Compound 344], the IC50 in experiment [1] (setting [7]) is more than 1 µM; in experiment [2] (setting [8]), 0.1 to 1 µM; in experiment [3] (setting [9]), 1 to 10 µM.

In the case of `C[C@@H]1CC[C@@H](c2ccc(C(F)F)cc2)N(C(=O)C(=O)Nc2cncc(C(N)=O)c2)C1` (single isomer, unassigned) [Compound 358], the IC50 in experiment [1] (setting [7]) was more than 1 µM; in experiment [2] (setting [8]) it was more than 1 µM; in experiment [3] (setting [9]), more than 10 µM.

Turning to `C[C@H]1CC[C@H](c2ccc(C(F)F)cc2)N(C(=O)C(=O)Nc2cncc(C(N)=O)c2)C1` (single isomer, unassigned) [Compound 359], the IC50 was more than 1 µM in experiment [1] (setting [7]), less than 0.1 µM in experiment [2] (setting [8]) and 1 to 10 µM in experiment [3] (setting [9]).

As for `C[C@H]1CC[C@H](c2ccc3[nH]ncc3c2)N(C(=O)C(=O)Nc2cncc(C(N)=O)c2)C1` (single isomer, unassigned) [Compound 360], the IC50 is more than 1 µM in experiment [1] (setting [7]), more than 1 µM in experiment [2] (setting [8]) and more than 10 µM in experiment [3] (setting [9]).

In the case of `C[C@@H]1CC[C@@H](c2ccc3[nH]ncc3c2)N(C(=O)C(=O)Nc2cncc(C(N)=O)c2)C1` (single isomer, unassigned) [Compound 361], the values for the IC50 in experiment [1] (setting [7]), in experiment [2] (setting [8]) and in experiment [3] (setting [9]) were 0.1 to 1 µM, less than 0.1 µM and less than 1 µM, respectively.

On to `Cc1cc(NC(=O)C(=O)N2C[C@H](C)CC[C@H]2c2ccc3[nH]ncc3c2)cnc1N` (single isomer, unassigned) [Compound 363], for which the IC50 was less than 0.1 µM in experiment [1] (setting [7]), less than 0.1 µM in experiment [2] (setting [8]) and less than 1 µM in experiment [3] (setting [9]).

Take `Cc1cc(NC(=O)C(=O)N2C[C@@H](C)CC[C@@H]2c2ccc3[nH]ncc3c2)cnc1N` (single isomer, unassigned) [Compound 364]: the IC50 in experiment [1] (setting [7]) was more than 1 µM; in experiment [2] (setting [8]), more than 1 µM; in experiment [3] (setting [9]), more than 10 µM.

Regarding `C[C@@H]1CC[C@@H](c2ccc3[nH]ccc3c2)N(C(=O)C(=O)Nc2cncc(C(N)=O)c2)C1` (single isomer, unassigned) [Compound 372], the IC50 is more than 1 µM in experiment [1] (setting [7]), more than 1 µM in experiment [2] (setting [8]) and more than 10 µM in experiment [3] (setting [9]).

For the molecule `Cc1cc(NC(=O)C(=O)N2C[C@H](C)CC[C@H]2c2ccc3[nH]ccc3c2)cnc1N` (single isomer, unassigned) [Compound 385], the results for the IC50 in experiment [1] (setting [7]), in experiment [2] (setting [8]) and in experiment [3] (setting [9]) were 0.1 to 1 µM, less than 0.1 µM and less than 1 µM, respectively.

For the molecule `Cc1cc(NC(=O)C(=O)N2C[C@@H](C)CC[C@@H]2c2ccc3[nH]ccc3c2)cnc1N` (single isomer, unassigned) [Compound 388], the IC50 in experiment [1] (setting [7]) was more than 1 µM; in experiment [2] (setting [8]), more than 1 µM; in experiment [3] (setting [9]), more than 10 µM.

As to `Cc1cc(NC(=O)C(=O)N2C[C@@H](C)CC[C@H]2c2ccc3[nH]ncc3c2)cnc1N` (single isomer, unassigned) [Compound 392], the IC50 in experiment [1] (setting [7]) is more than 1 µM; in experiment [2] (setting [8]), less than 0.1 µM; in experiment [3] (setting [9]), 1 to 10 µM.

For `Cc1cc(NC(=O)C(=O)N2C[C@@H](C)CC[C@@H]2c2ccc(O)cc2)cnc1N` (single isomer, unassigned) [Compound 396], the IC50 is more than 1 µM in experiment [1] (setting [7]), more than 1 µM in experiment [2] (setting [8]) and more than 10 µM in experiment [3] (setting [9]).

For `Cc1cc(NC(=O)C(=O)N2C[C@H](C)CC[C@H]2c2ccc(O)cc2)cnc1N` (single isomer, unassigned) [Compound 397], the IC50 in experiment [1] (setting [7]) was 0.1 to 1 µM; in experiment [2] (setting [8]) it was less than 0.1 µM; in experiment [3] (setting [9]), less than 1 µM.

On to `Cc1cc(NC(=O)C(=O)N2C[C@@H](C)CC[C@@H]2c2ccc3[nH]cnc3c2)cnc1N` (single isomer, unassigned) [Compound 408], for which the IC50 in experiment [1] (setting [7]) was 0.1 to 1 µM; in experiment [2] (setting [8]), less than 0.1 µM; in experiment [3] (setting [9]), less than 1 µM.
